We go through 16 molecules from US20230090742A1, “AMINOPYRIMIDINYLAMINOBENZONITRILE DERIVATIVES AS NEK2 INHIBITORS” (Sumitomo Pharma Oncology, Inc., priority 2020, published 2023).

For experiment [1], the target named is T1, NEK2 kinase (Accession No. NP-002488) (Homo sapiens, UniProt P51955).
T1 construct: purchased ThermoFisher Scientific (Invitrogen)
T1 sequence (P51955 1-445): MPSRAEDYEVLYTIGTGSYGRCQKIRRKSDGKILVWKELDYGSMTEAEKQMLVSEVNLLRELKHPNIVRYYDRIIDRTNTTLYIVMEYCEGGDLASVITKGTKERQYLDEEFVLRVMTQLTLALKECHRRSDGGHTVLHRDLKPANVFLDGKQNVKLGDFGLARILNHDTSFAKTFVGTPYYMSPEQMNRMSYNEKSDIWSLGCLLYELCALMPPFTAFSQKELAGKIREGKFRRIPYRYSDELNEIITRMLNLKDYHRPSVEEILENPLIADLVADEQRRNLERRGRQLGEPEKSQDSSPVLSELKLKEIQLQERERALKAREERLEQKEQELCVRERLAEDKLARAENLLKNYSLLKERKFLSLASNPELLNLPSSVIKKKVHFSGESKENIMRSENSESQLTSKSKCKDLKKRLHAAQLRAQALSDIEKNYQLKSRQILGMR
Nature of the experiment: HotSpot Kinase Assay, NEK2. Type of experiment: biochemical. The conditions noted are these: HotSpot Kinase Assay; read-out: NEK2 IC50. The procedure:
In this example, the compounds described herein were tested for their inhibitory activity against NEK2 and/or Aurora A using the HotSpot™ Kinase Assay (Reaction Biology Corp.). The assay was performed according to the manufacturer's protocol, as detailed below. The NEK2 kinase (Accession No. NP-002488) and Aurora A kinase (Accession No. NP-940839) for use in these assays was sourced from ThermoFisher Scientific (Invitrogen).
The base Reaction Buffer used in this experiment contained the following: 20 mM Hepes (pH 7.5), 10 mM MgCl2, 1 mM EGTA, 0.02% Brij™-35, 0.02 mg/ml BSA, 0.1 mM Na3VO4, 2 mM DTT, and 1% DMSO. The required cofactors were added individually to each kinase reaction.
Testing compounds were dissolved in 100% DMSO to a specific concentration. The serial dilution was conducted by Integra Viaflo Assist in DMSO.
The substrate was prepared in freshly prepared Reaction Buffer. The required cofactors were delivered to the substrate solution described above. NEK2 kinase or Aurora A kinase was delivered to the substrate solution and gently mixed. Next, the compounds in 100% DMSO were transferred to the kinase reaction mixture by Acoustic technology (Echo550; nanoliter range) and incubated for 20 min at room temperature. ^33P-ATP (Specific activity 10 μCi/μl) was delivered into the reaction mixture to initiate the reaction. The reaction was incubated for 2 hours at room temperature. Radioactivity was then detected by the filter-binding method. Kinase activity data were expressed as the percent remaining kinase activity in test samples compared to vehicle (dimethyl sulfoxide) reactions. IC50 values and curve fits were obtained using Prism (GraphPad Software).

Experiment [2] deals with T2, NEK2 (Homo sapiens, UniProt P51955).
T2 construct: expressed in transfected cells; host or cells: HEK293
T2 sequence (P51955 1-445): T1 sequence (P51955 1-445)
Nature of the experiment: NanoBRET Target Engagement Intracellular Kinase Assay for NEK2 in transfected HEK293 cells. Particulars: NEK2 target engagement, read-out: NanoBRET IC50. The class given is cell-based. The procedure: In this example, the compounds described herein were tested for their inhibitory activity against NEK2 using a model of in vivo activity by the NanoBRET™ Target Engagement Intracellular Kinase Assay (Reaction Biology Corp.). The assay was performed according to the manufacturer's protocol, as detailed below.
HEK293 cells were cultivated (70-80% confluence) prior to the assay. The sample was trypsinized and HEK293 cells were collected.
To prepare lipid: DNA complexes, a 10 μg/ml solution of DNA in Opti-MEM without serum was prepared that consisted of the following ratios of carrier DNA and DNA encoding NanoLuc® fusion: 9.0 μg/ml of Transfection Carrier DNA, 1.0 μg/ml of NanoLuc fusion vector DNA and 1 ml of Opti-MEM without phenol red. The solution was mixed thoroughly. 30 μl of FuGENE HD Transfection Reagent was added into each milliliter of DNA mixture to form lipid: DNA complex. The sample was mixed by inversion 10 times and then incubated at ambient temperature for 20 minutes to allow complexes to form. In a sterile, conical tube, 1 part of lipid:DNA complex was mixed with 20 parts of HEK293 cells in suspension. The resulting sample was mixed gently by inversion 5 times. The cell and lipid: DNA complex was dispensed into a sterile tissue culture dish and incubated for 22-24 hours.
Each test compound is delivered from the compound source plate to the wells of 384-well white NBS plate by Echo 550.
Step 3. Preparation of Cells with NanoBRET™ Tracer K5 Reagent:
The medium was removed from the dish with the transfected HEK293 cells via aspiration, trypsinized and cells were allowed to dissociate from the dish. Trypsin was neutralized using medium containing serum and centrifuged at 200×g for 5 minutes to pellet the cells. The cell density was adjusted to 2×10^5 cells/ml in Opti-MEM without phenol red.
The Complete 20× NanoBRET™ Tracer K5 Reagent with Tracer Dilution Buffer was prepared according to the manufacturer's instructions. One part of Complete 20× NanoBRET™ Tracer Reagent was added to 20 parts of cells in the tube. The sample was mixed gently by inversion 10 times. Next, the cell suspension was dispensed into white, 384-well NBS plates with a final tracer K5 concentration of 2 μM. The plate was incubated at 37° C., 5% CO2 for 1 hour. A separate set of samples without tracer were prepared for background correction steps.
The plate was removed from the incubator and equilibrated to room temperature for 15 minutes. The 3× Complete Substrate plus Inhibitor Solution in Assay Medium (Opti-MEMR I Reduced Serum Medium, no phenol red) was prepared just before measuring BRET. The 3× Complete Substrate plus Inhibitor Solution was added to each well of the 384-well plate and incubated for 2-3 minutes at room temperature. The donor emission wavelength (460 nm) and acceptor emission wavelength (600 nm) were measured using the Envision 2104 plate reader.
To generate raw BRET ratio values, the acceptor emission value (600 nm) was divided by the donor emission value (460 nm) for each sample. To correct for background, the BRET ratio in the absence of tracer (average of no-tracer control samples) was subtracted from the BRET ratio of each sample.
BRET Ratio=[(Acceptor sample÷Donor sample)−(Acceptor no-tracer control÷Donor no-tracer control)]

Turning to `N#Cc1c(Nc2nc(Nc3ccc(N4CCNCC4)cc3)ncc2Cl)cccc1OCc1cccc(F)c1` [Compound 14, 2-((5-chloro-2-((4-(piperazin-1-yl)phenyl)amino)pyrimidin-4-yl)amino)-6-((3-fluorobenzyl)oxy)benzonitrile], the figures for the IC50 in experiment [1] and in experiment [2] were > 15 nM and > 150 nM, respectively.

Regarding `N#Cc1c(Nc2nc(Nc3ccc(C(=O)N4CCNCC4)cc3)ncc2Cl)cccc1OCc1ccccc1F` [Compound 6, 2-((5-chloro-2-((4-(piperazine-1-carbonyl)phenyl)amino)pyrimidin-4-yl)amino)-6-((2-fluorobenzyl)oxy)benzonitrile], the IC50 in experiment [1] is > 15 nM; in experiment [2] it was > 150 nM.

As for `COc1cc(N2CCNCC2)ccc1Nc1ncc(Cl)c(Nc2cccc(OCc3ccccc3F)c2C#N)n1` [Compound 7, 2-((5-chloro-2-((2-methoxy-4-(piperazin-1-yl)phenyl)amino)pyrimidin-4-yl)amino)-6-((2-fluorobenzyl)oxy)benzonitrile], the IC50 is ≤ 5 nM in experiment [1] and > 150 nM in experiment [2].

For `N#Cc1c(Nc2nc(Nc3ccc(CN4CCOCC4)cc3)ncc2Cl)cccc1OCc1ccccc1F` [Compound 1, 2-((5-chloro-2-((4-(morpholinomethyl)phenyl)amino)pyrimidin-4-yl)amino)-6-((2-fluorobenzyl)oxy)benzonitrile], the IC50 in experiment [1] was > 15 nM; in experiment [2], ≤ 50 nM.

As for `COc1cc(Nc2ncc(Cl)c(Nc3cccc(OCc4ccccc4F)c3C#N)n2)ccc1N1CCNCC1` [Compound 9, 2-((5-chloro-2-((3-methoxy-4-(piperazin-1-yl)phenyl)amino)pyrimidin-4-yl)amino)-6-((2-fluorobenzyl)oxy)benzonitrile], the IC50 in experiment [1] was ≤ 5 nM; in experiment [2], ≤ 50 nM.

Regarding `N#Cc1c(Nc2nc(Nc3ccc(N4CCNCC4)cc3)ncc2Cl)cccc1OCc1ccc(F)cc1` [Compound 13, 2-((5-chloro-2-((4-(piperazin-1-yl)phenyl)amino)pyrimidin-4-yl)amino)-6-((4-fluorobenzyl)oxy)benzonitrile], the IC50 was > 15 nM in experiment [1] and > 150 nM in experiment [2].

As to `C[C@H](Oc1cccc(Nc2nc(Nc3ccc(N4CCN(C)CC4)cc3)ncc2Cl)c1C#N)c1ccccc1F` [Compound 3, (S)-2-((5-chloro-2-((4-(4-methylpiperazin-1-yl)phenyl)amino)pyrimidin-4-yl)amino)-6-(1-(2-fluorophenyl)ethoxy)benzonitrile], the values for the IC50 in experiment [1] and in experiment [2] were ≤ 5 nM and ≤ 50 nM, respectively.

In the case of `C[C@@H](Oc1cccc(Nc2nc(Nc3ccc(N4CCN(C)CC4)cc3)ncc2Cl)c1C#N)c1ccccc1F` [Compound 4, (R)-2-((5-chloro-2-((4-(4-methylpiperazin-1-yl)phenyl)amino)pyrimidin-4-yl)amino)-6-(1-(2-fluorophenyl)ethoxy)benzonitrile], the IC50 is > 15 nM in experiment [1] and > 150 nM in experiment [2].

On to `N#Cc1c(Nc2nc(Nc3ccc(CN4CCNCC4)cc3)ncc2Cl)cccc1OCc1ccccc1F` [Compound 15, 2-((5-chloro-2-((4-(piperazin-1-ylmethyl)phenyl)amino)pyrimidin-4-yl)amino)-6-((2-fluorobenzyl)oxy)benzonitrile], for which the IC50 in experiment [1] was 5 to 15 nM; in experiment [2], > 150 nM.

With `N#Cc1c(Nc2nc(Nc3ccc(C4CCNCC4)cc3)ncc2Cl)cccc1OCc1ccccc1F` [Compound 27, 2-((5-chloro-2-((4-(piperidin-4-yl)phenyl)amino)pyrimidin-4-yl)amino)-6-((2-fluorobenzyl)oxy)benzonitrile], the figures for the IC50 in experiment [1] and in experiment [2] were ≤ 5 nM and 50 to 150 nM, respectively.

Consider `N#Cc1c(Nc2nc(Nc3cnn(C4CCNCC4)c3)ncc2Cl)cccc1OCc1ccccc1F` [Compound 31, 2-((5-chloro-2-((1-(piperidin-4-yl)-1H-pyrazol-4-yl)amino)pyrimidin-4-yl)amino)-6-((2-fluorobenzyl)oxy)benzonitrile], for which the IC50 in experiment [1] is 5 to 15 nM; in experiment [2], > 150 nM.

In the case of `N#Cc1c(Nc2nc(Nc3ccc(N4CCN(CCO)CC4)cc3)ncc2Cl)cccc1OCc1ccccc1F` [Compound 17, 2-((5-chloro-2-((4-(4-(2-hydroxyethyl)piperazin-1-yl)phenyl)amino)pyrimidin-4-yl)amino)-6-((2-fluorobenzyl)oxy)benzonitrile], the IC50 in experiment [1] is ≤ 5 nM; in experiment [2], 50 to 150 nM.

`N#Cc1c(Nc2nc(Nc3ccc(N4CCNCC4)nc3)ncc2Cl)cccc1OCc1ccccc1F` [Compound 8, 2-((5-chloro-2-((6-(piperazin-1-yl)73yridine-3-yl)amino)pyrimidin-4-yl)amino)-6-((2-fluorobenzyl)oxy)benzonitrile]: the IC50 is 5 to 15 nM in experiment [1] and > 150 nM in experiment [2].

On to `CN1CCN(c2ccc(Nc3ncc(Cl)c(Nc4cccc(OCc5ccccc5F)c4C#N)n3)cc2)CC1` [Compound 18, 2-((5-chloro-2-((4-(4-methylpiperazin-1-yl)phenyl)amino)pyrimidin-4-yl)amino)-6-((2-fluorobenzyl)oxy)benzonitrile], for which the IC50 was ≤ 5 nM in experiment [1] and 50 to 150 nM in experiment [2].

In the case of `COc1ccccc1COc1cccc(Nc2nc(Nc3ccc(N4CCNCC4)cc3)ncc2Cl)c1C#N` [Compound 11, 2-((5-chloro-2-((4-(piperazin-1-yl)phenyl)amino)pyrimidin-4-yl)amino)-6-((2-methoxybenzyl)oxy)benzonitrile], the results for the IC50 in experiment [1] and in experiment [2] were > 15 nM and > 150 nM, respectively.

In the case of `N#Cc1c(Nc2nc(Nc3ccc(N4CCNCC4)cc3)ncc2Cl)cccc1OCc1c(F)cccc1F` [Compound 19, 2-((5-chloro-2-((4-(piperazin-1-yl)phenyl)amino)pyrimidin-4-yl)amino)-6-((2,6-difluorobenzyl)oxy)benzonitrile], the IC50 is 5 to 15 nM in experiment [1] and ≤ 50 nM in experiment [2].
